# Laboratory results taken from US20130047297A1, “POLYNUCLEOTIDE MOLECULES FOR GENE REGULATION IN PLANTS” (priority 2010, published 2013).
# {AF488} = Alexa Fluor 488 fluorescent label (Invitrogen)
# B1: synthetic Pol III gene: dsDNA, SEQ ID NO:3, U6 snRNA elements with anti-sense and sense DNA of bacterial EPSPS (nucleic acid)
# DNA: GGCCCATAGGCCTTTTTCTAAAATAGGCCCATTTAAGCTATTAACAATCTTCAAAAGTACCACATCGCTTAGGTAAAGAAAGCAGCTGAGTTTATATATGGTTAGAGACGAAGTAGTGATTGCGACGAGCGACGTCTCGCCCTCATCGCAATCCACGCCATTGAGCTTGAGGCCATTGGCGACGGCCGAGAGGCGGTCGCTTAAGATTAGCATGTCCTTGACGCGGAGTTCTTCCAGACCGTTCATCACGGTCGCCCCTTCCGCGAAGGCGGCGGCGACAGCGAGAATCGGATATTCGTCGATCATCGAAGGCGCGCGGTCTTCCGGCACCGTGACGCATAAACACGGTGCCGGAAGACCGCGCGCCTTCGATGATCGACGAATATCCGATTCTCGCTGTCGCCGCCGCCTTCGCGGAAGGGGCGACCGTGATGAACGGTCTGGAAGAACTCCGCGTCAAGGAAAGCGACCGCCTCTCGGCCGTCGCCAATGGCCTCAAGCTCAATGGCGTGGATTGCGATGAGGGCGAGACGTCGCTCGTCGTTTTTTTTGGCAAAAA
# B2: 201 nucleotide dsRNA polynucleotide: dsRNA to SEQ ID NO:60, positions 1724-1923 of tomato PDS mRNA (nucleic acid)
# sense: TCGCAGCGACTCAGAAATTATTGATGCAACGATGAAGGAACTAGCAACGCTTTTTCCTGATGAAATTTCAGCAGATCAAAGCAAAGCAAAAATATTGAAGTACCATGTTGTCAAAACTCCGAGGTCTGTTTATAAAACTGTGCCAGGTTGTGAACCCTGTCGGCCTTTACAAAGATCCCCAATAGAGGGGTTTTATTTAG
# modifications: complementary strand
# B3: EPSPS anti-sense polynucleotides: SEQ ID NOS:279-284, anti-sense to Nicotiana benthamiana EPSPS (nucleic acid)
# antisense 1: CTGTGATCATCATATGTATCA
# antisense 2: CCTTAACTCTCCAGCTAGCAA
# antisense 3: CAGCCCGCAAATGTTTCATTC
# antisense 4: GCCGTCAATGGCCGCATTGCT
# antisense 5: TCCTTCCCTCAGAAAGGGCAG
# antisense 6: TTGCCTCATGCTGCTAATCTG
# modifications: listed as DNA, chemistry not given here
# What was measured:
# [1] = tested on: Glyphosate-resistant Palmer amaranth plants having 49 or 63 copies EPSPS; test: Salicylic acid pretreatment with dsRNA and glyphosate (Example 15); assay type: in vivo; settings: 15 millimolar SA 1, 5, or 24 hours before dsRNA; glyphosate 72 hours later; 7 days after glyphosate
# Protocol: Salicylic acid (SA) induces virus resistance in tobacco; see, e. g., Chivasa et al. (1997) Plant Cell, 19:547-557. Glyphosate-resistant Palmer amaranth plants having 49 or 63 copies EPSPS were pretreated with 15 millimolar SA. A solution of the four oligonucleotide-size “short” EPSPS dsRNA molecules (described in Example 1) was applied by hand at 1, 5, or 24 hours after treatment with SA, followed 72 hours later by spraying with glyphosate (1682 g acid equivalent per hectare of Roundup® WeatherMAX® brand herbicide).
# [2] = tested on: phytoene desaturase (PDS) gene in lettuce (Lactuca sativa); test: Topical PDS ssDNA on lettuce, bleaching (Example 24); assay type: in vivo; settings: 8 nanomoles polynucleotide per plant (mixture: 2 nanomoles each); observed at 4
# Protocol: Lettuce variety LS49 “Green Tower” was used in the assays. Two fully expanded leaves of each plant were dipped into a freshly made 0.1% Silwet L-77 in double-distilled water solution for a few seconds. The leaves were allowed to dry for 15-30 minutes. Each plant was then treated by applying 20 microliters ssDNA solution to the top surface of two Silwet-treated leaves (total 40 microliters per plant). Table 9 lists the assay conditions used and the observed bleaching of plants topically treated with ssDNA polynucleotides.
# The assays were repeated with 2 or 4 nanomoles ssDNA applied per plant.
# The assays were repeated using each individual anti-sense ssDNAs (“HL287”, SEQ ID NO:55; “HL288”, SEQ ID NO:56; “HL289”, SEQ ID NO:57; and “HL290”, SEQ ID NO:58) with 8 nanomoles polynucleotide applied per plant; positive control plants were treated with a mixture of the four individual anti-sense ssDNAs at 2 nanomoles each (for a total of 8 nanomoles polynucleotide applied per plant) and negative control plants were treated only with buffer.
# [3] = tested on: detached leaves of glyphosate-resistant Palmer amaranth; test: Petiole uptake of fluorescently labelled ssDNA oligonucleotide in detached leaves (Example 9); set-up: species or system Amaranthus palmeri
# Protocol: Petioles of detached leaves of glyphosate-resistant Palmer amaranth were placed in 200 mM sucrose solution with fluorescently labelled ssDNA oligonucleotides (SEQ ID NO:15). Leaf images were taken by Bio-Rad PharosFX imager equipped with a 488 nm laser from 4 h up to 48 h after uptake through petiole. Leaves incubated with 200 mM sucrose alone served as control.
# [4] = tested on: volunteer glyphosate-resistant corn plants; test: Synthetic Pol III gene dsDNA on volunteer corn (Example 8); assay type: in vivo; settings: 0.1 wt % Silwet L-77 and dsDNA sprayed, glyphosate 7 days later; 15 days later
# Excerpt: (§1) This example illustrates the utility of employing a synthetic Pol III gene in compositions and methods of this invention. With reference to SEQ ID NO:3 and FIG. 2, a synthetic Pol III gene is created using elements from an Arabidopsis thaliana U6 snRNA gene to provide a dsDNA molecule with two copies of RGCCCR elements (bold and underlined), an upstream sequence element (USE) having the sequence “[…]” (SEQ ID NO:4, bold and underlined), a TATA box (bold and underlined), a “G” nucleotide (bold and underlined), anti-sense DNA (italics) corresponding to a bacterial DNA encoding an EPSPS protein (see U.S. Pat. No. RE39,247) that imparts resistance to glyphosate herbicide when expressed in transgenic corn plants, an “[…]” element (SEQ ID NO:5, bold and underlined) embedded in the anti-sense DNA, an “[…]” element (SEQ ID NO:6, bold and underlined) followed by sense DNA (lower case) and a “TTTTTT” terminator element (SEQ ID NO:7, bold and underlined). A solution of 0.1 wt % Silwet L-77 brand organosilicone surfactant and a solution of multiple copies of the dsDNA molecule are sprayed onto leaves of volunteer glyphosate-resistant corn plants growing in a field of glyphosate-resistant soybean plants, followed 7 days later by treatment with Roundup WeatherMAX® brand glyphosate herbicide. […]
# [5] = tested on: glyphosate-resistant soybean plants; test: Synthetic Pol III gene dsDNA, soybean crop (Example 8); assay type: in vivo; settings: 0.1 wt % Silwet L-77 and dsDNA sprayed, glyphosate 7 days later; 15 days later
# Excerpt: as §1
# [6] = tested on: phytoene desaturase (PDS) gene in tomato (Solanum lycopersicum); test: Topical PDS dsRNA on tomato (Example 25); assay type: in vivo; settings: 2.5 micromolar dsRNA, 40 microliters per plant
# Excerpt: A 201 nucleotide dsRNA polynucleotide with an anti-sense strand capable of hybridizing to the RNA encoded by the sequence […] […] […] AG (SEQ ID NO:60) which correspond to the nucleotides at positions 1724-1923 of the mRNA transcribed from the tomato PDS gene sequence (SEQ ID NO:59) was synthesized by RT PCR using oligonucleotide primers with the sequences […] (SEQ ID NO:61, sense primer) and […] (SEQ ID NO:62, anti-sense primer). A 2.5 micromolar dsRNA solution was made with the 201 nucleotide dsRNA polynucleotide (SEQ ID NO:60) in 0.01% Silwet L-77 in 5 millimolar sodium phosphate buffer, pH 6.8.
# Three-week old tomato seedlings were treated as follows. Two fully expanded leaves were dipped into a freshly made 0.1% Silwet L-77 solution in double-distilled water for a few seconds. The leaves were allowed to dry for 30 minutes to 1 hour. Each plant was then treated by applying 20 microliters dsRNA solution to the top surface of two Silwet-treated leaves (total 40 microliters per plant). Control plants were treated with buffer. The plants were kept in a growth chamber for observation. FIG. 30 depicts the systemic silencing of the target gene PDS as evidenced by bleaching of the dsRNA-treated plants 30 days after topical treatment.
# [7] = tested on: endogenous PDS, EPSPS, or RuBisCO genes from Nicotiana benthamiana; test: PDS, EPSPS, RuBisCO anti-sense polynucleotides on Nicotiana benthamiana, plant height (Example 33); assay type: in vivo; settings: PDS 25 nanomoles, EPSPS and RuBisCO 50 nanomoles of each per plant
# Protocol: Nicotiana benthamiana plants were treated using a procedure similar to that described in Example 12. Polynucleotide solution (or mixed polynucleotides in the case of EPSPS and RuBisCO) were prepared in 0.01% (v/v) Silwet L-77 and 2% (w/v) ammonium sulfate in 5 millimolar sodium phosphate, pH 6.8. Two fully expanded leaves per plant were dipped into 0.1% Silwet L-77 solution freshly made with ddH2O for a few seconds, and allowed to dry. About 30 minutes later, 20 microliters of polynucleotide solution, was applied to each of the two pre-treated leaves. For PDS, each of 5 plants received 25 nanomoles of the PDS anti-sense polynucleotide (SEQ ID NO:34); for EPSPS, each of 5 plants received 50 nanomoles of each EPSPS anti-sense polynucleotide (SEQ ID NOS:279-284); and for RuBisCO, each of 5 plants received 50 nanomoles of each RuBisCO anti-sense polynucleotide (SEQ ID NOS:288-295). Paired control plants were treated with buffer (0.01% (v/v) Silwet L-77 and 2% (w/v) ammonium sulfate in 5 millimolar sodium phosphate, pH 6.8).
molecule,measurement,setting,value
"O=C(O)c1ccccc1O [SA, Salicylic acid]",improvement of the effects of the dsRNAs and glyphosate activity (plant height),[1],No improvement
"HL288: SEQ ID NO:56, anti-sense ssDNA, lettuce PDS (antisense CCATTCAATGGTGCAGGTAAAAC; DNA, backbone not given here)",systemic silencing (FIG. 29B),[2],systemic silencing evidenced by bleaching
"HL290: SEQ ID NO:58, anti-sense ssDNA, lettuce PDS (antisense CAAATAAATTTTGTACATTTGGGTAAGCTCCAA; DNA, backbone not given here)",systemic silencing (FIG. 29B),[2],systemic silencing evidenced by bleaching
"HL289: SEQ ID NO:57, anti-sense ssDNA, lettuce PDS (antisense CATAGAATGCTCCTTCCACTG; DNA, backbone not given here)",systemic silencing (FIG. 29B),[2],systemic silencing evidenced by bleaching
"Anti-sense_PO1_488: SEQ ID NO:15, 5′-labelled with Alexa Fluor 488 (antisense ACCCTCCACGACTGCCCTTT; DNA, 5' {AF488}, backbone not given here; listed as Amaranthus palmeri)",distribution in leaf,[3]; at 24 h and 48 h,accumulate at the leaf edge
same,vascular uptake into leaf,"[3]; petiole in 200 mM sucrose, imaged 4 h up to 48 h",slightly time-dependent vascular uptake
same,"release from vascular tissue into cells, as early as (time after treatment)",[3]; petiole uptake,8 h
B1,corn plant outcome,[4],dead
same,soybean plant outcome,[5],thriving
B2,plant growth compared to control plants,[6],severely stunted
same,systemic silencing of PDS (FIG. 30),[6]; 30 days after topical treatment,bleaching
B3,plant height (FIG. 36),[7]; 12 days (PDS and EPSPS) or 10 days (RuBisCO) after treatment,severe stunting
same,other phenotype,[7],severe damage to the meristem and stem tissues
